The values below are quoted from earlier work in US12551454B2, “Isoproterenol compositions and methods” (Endo Operations Limited, priority 2020, dated 2026).

The conditions of this data set: more potent than its (S)-enantiomer.

`CC(C)NC[C@H](O)c1ccc(O)c(O)c1` (single isomer, unassigned) [(R)-enantiomer of Isoproterenol]: the “potency relative to (S)-enantiomer” value was around 90 times.
